In data set [1] the test system is mice. The settings on record: 100 mg/kg daily, 30 days; cited from earlier work.
The subject of data set [2] is mice. The experiment in a line: Mouse toxicity experiment, Angelica archangelica water-extract mixed in food for 6 months. The settings on record: daily consumption of cnidimoside A 3.35 mg/kg (calculated from extract content 0.15%). It counts as in vivo. As for the experimental part: In a mouse experiment, we fed mice with about […] Angelica archangelica water-extract (mixed in food) daily for 6 months. Assuming the mice to be on average 23 g and cnidimoside A content in the extract to be 0.15%, this means that the daily consumption of cnidimoside A was 3.35 mg/kg.

In data set [3] the test system is β-adrenergic receptors in porcine detrusors. The experiment in a line: Contraction of potassium-contracted pig detrusor muscle strips in organ baths, relaxation by adrenaline and desensitization. From the text: Bladders were obtained from freshly slaughtered pigs and placed in cold Krebs solution (composition, mM: sodium chloride 119, potassium chloride 4.6, sodium bicarbonate 15, calcium chloride 1.5, magnesium chloride 1.2, sodium dihydrogen phosphate 1.2, glucose was 1.98 g/L) which had been gassed by 5% CO2 and put on ice. Subsequently four adjacent strips were cut from the detrusor (typically 2 mm wide and 20 mm long). In each case, four strips were cut, one of which served as a control. The tissues were mounted in a 100-mL organ bath containing sodium Krebs solution, which was maintained at 37° C. and continuously gassed with 95% O2 and 5% CO2. The strips were placed under a tension of ≈1 g and allowed to equilibrate for 60 minutes, during which the bath was changed three times. The muscle contraction was recorded by a transducer. The muscle strips were then contracted by addition of potassium up to 50 mM and allowed to equilibrate.
About 40 minutes after addition of potassium, cnidimoside A was given to the organ baths. Cnidimoside A was isolated from Angelica archangelica leaf by boiling the dried leaf in water, extracting the water phase by ethyl acetate and subjecting the resulting organic phase to silica acid chromatography column. Cnidimoside A is eluted by 10% methanol in chloroform after washing the column with ethyl acetate and chloroform. The cnidimoside A rich fractions were recrystallized in methanol.
The muscle strip in the fourth organ bath (D in FIG. 1) received the same amount of DMSO but no cnidimoside A. About 20 and 30 minutes later (see FIG. 1, times 9 and 10) adrenaline was added to all organ baths, resulting in 0.4 (time 9) and 1.2 μM (time 10) final concentration, respectively.
About 75 minutes after addition of potassium, cnidimoside A dissolved in DMSO was added to three organ baths (E-G, time-10 in FIG. 2), the fourth receiving the same amount of DMSO (bottom graph (H) in FIG. 2). Fifteen minutes after the addition of cnidimoside A, adrenaline was added to all baths, to a final concentration of 2 μM (time 11 in FIG. 2). In the absence of cnidimoside A the muscle strip relaxed for about 15 minutes, but then started contracting again, reaching the same level of contraction about 50 minutes after the addition of adrenaline.

A short description of a further data set: Water solubility. It counts as physicochemical.

SMILES strings stand for the structures.

This is an account of results in US11850257B2, “Method for enhancing beta-adrenergic response” (Saganatura EHF., priority 2019, dated 2023).

As to `C/C(=C/Cc1c(O)cc2oc(C)cc(=O)c2c1O)CO[C@@H]1O[C@H](CO)[C@@H](O)[C@H](O)[C@H]1O` [cnidimoside A, 5,7-dihydroxy-2-methyl-6-[(Z)-3-methyl-4-[(2R,3R,4S,5S,6R)-3,4,5-trihydroxy-6-(hydroxymethyl)oxan-2-yl]oxybut-2-enyl]chromen-4-one], the “Effect on the weight of body, liver, spleen or thymus” value in the data set on mice [1] was “without affecting”. The Toxic effect result with mice [2] is on record as “No toxic effect”. Also, the “Desensitization of the relaxation response to adrenaline” value is reported as “occurred slowly” in data set [3] (13 μM cnidimoside A (bath C), adrenaline 0.4 and 1.2 μM, Experiment I); “not observed at all” in data set [3] (38 μM cnidimoside A (bath B), adrenaline 0.4 and 1.2 μM, Experiment I); “not observed at all” in data set [3] (112 μM cnidimoside A (bath A), adrenaline 0.4 and 1.2 μM, Experiment I); “occurs much slower” in data set [3] (200 μM cnidimoside A, adrenaline 2 μM, Experiment II). In addition, the “Repression of desensitization across doses” value in data set [3] (13, 38 and 112 μM cnidimoside A vs DMSO control, Experiment I) was “repressed dose-dependently”. Further, the Water solubility result in the data set “Water solubility” is reported as “highly water soluble”.
